We go through 91 molecules from a melting point compilation (Tetko et al.; mined from patent text by program, amines drawn as free bases though some values may be those of a salt).

A value given as a limit tells only on which side of the number the result lay.

As usually defined, the melting point is the temperature, or range, at which the solid turns liquid.

In turn, `N#Cc1ccc(N2C(=O)[C@@H]3[C@H](O)CCN3C2=O)c2c1OCCO2` came in with a melting point of 196 to 197 °C.

`CS(=O)(=O)c1ccc(-c2oncc2CCCO)cc1` gave a melting point of 125 to 126 °C.

Consider `CN(CCCc1ccccc1)[C@H]1CC[C@H](c2ccc3[nH]c(=O)oc3c2)CC1`, for which the melting point lay within 58 to 62 °C.

`COc1ccc(OCCc2ccccc2)c(CC(=O)O)c1` yielded a melting point of 56.5 to 57.5 °C.

`CN1CSC(Cc2cc(C(C)(C)C)c(O)c(C(C)(C)C)c2)C1=O` (stereo unspecified): the melting point was 102 to 105 °C.

On to `Nc1nc(O)ncc1-c1cccc(Cl)c1Cl`, for which the melting point was in the range of 330 to 334 °C.

In the case of `CC(C)CC1(C(CCSc2cccs2)C(=O)NO)CCN(CCc2ccccc2)C1=O` (stereo unspecified), the melting point was in the range of 109 to 110 °C.

Regarding `Brc1ccc2[nH]c(-c3ccccc3)c(CCN3CCCCC3)c2c1`, the melting point was 121 to 122 °C.

Take `CCCn1c(=O)c(C#N)c(Cl)c2ccccc21`: the melting point lay in the range of 203 to 205 °C.

Molecule `CC(C)(C)c1ccc(N2CC(COC(=O)c3ccccc3C(=O)O)CC2=O)cc1` (stereo unspecified) gave a melting point of 155 to 157 °C.

`COc1ccc(C=CC(=O)Nc2ccccc2C(=O)O)cc1O` registered a melting point of 215 to 216 °C.

On to `COc1ccc2c(Cl)nccc2c1`, for which the melting point lay in the range of 72 to 74 °C.

The molecule `CS(=O)(=O)c1ccc2c(c1)[C@@H](Oc1ccc(C#N)cc1Cl)[C@H](N1CCC[C@@H](N)C1)C2` had a melting point of 162 °C.

In the case of `CC(=O)Nc1ccc(C(=O)N2CC3CC(CN(Cc4ccc(Cl)cc4)C3)C2)cc1`, the melting point came out at 181 °C.

As to `Cn1c(C(F)(F)F)cc(=O)n(-c2ccc3snc(C4OCC(CS(C)=O)O4)c3c2)c1=O` (stereo unspecified), the melting point is 72 to 75 °C.

For `CCN1C=C(C(=O)O)C(=O)CC1c1ccccc1` (stereo unspecified), the melting point lay in the range of 148 to 150 °C.

`CCN(c1ccc([N+](=O)[O-])cc1[N+](=O)[O-])S(=O)(=O)c1ccc(C)cc1` displayed a melting point of 135 to 136 °C.

`Cc1ccc(C=Nc2ccc(Cl)cc2Cl)c(C)c1` registered a melting point of 102 to 106 °C.

The molecule `O=C(O)CCc1ccc(O)c([N+](=O)[O-])c1` returned a melting point of 80 to 82 °C.

For the molecule `O=C(O)c1cn(-c2ccc(O)cc2)c2c(F)c(F)c(F)cc2c1=O`, the melting point is greater than 300 °C.

In the case of `Nc1cc(-c2nc3ccccn3c2Br)c(F)cc1F`, the melting point is 137 °C.

`Cn1cnc(S(=O)(=O)NCCCN2CCOCC2)c1` displayed a melting point of 148 to 149 °C.

As for `Cc1c(Cl)c([N+](=O)[O-])cc([N+](=O)[O-])c1Cl`, the melting point is 131 to 132 °C.

As for `CC(=O)NC[C@H]1CN(c2cc(F)c(N3CCC(n4nnc(N5CCN(C(C)=O)CC5)n4)CC3)c(F)c2)C(=O)O1`, the melting point is 200 to 205 °C.

As to `CCOC(=O)C1=C(C)Nc2nc(N3CCOCC3)nc(N3CCOCC3)c2C1c1c(F)c(F)c(F)c(F)c1F` (stereo unspecified), the melting point worked out at 195 °C.

`CC(=O)n1cc(C2=CCN(CCCN3c4cccc5cccc(c45)S3(=O)=O)CC2)c2ccccc21` had a melting point of 163 °C.

Take `CCOC(=O)C1=C(C)Nc2ccnn2C1c1ccccc1C(F)(F)F` (stereo unspecified): the melting point lay within 182 to 183 °C.

`Cc1cccc(C)c1NC(=O)C(C)N1CCN(CCC2CCOc3ccccc32)CC1` (stereo unspecified) registered a melting point of 130 °C.

The molecule `O=C(NCC(=O)N1c2ccccc2N(Cc2ccccc2)C(=O)[C@H]2CCC[C@H]21)c1ccccc1[N+](=O)[O-]` (relative stereo) returned a melting point of 132 to 135 °C.

In turn, `O=c1oc(=O)c2ccc3c4ccccc4sc4ccc1c2c43` came in with a melting point of 315 to 317 °C.

Regarding `CNC(=O)c1cc2c(nc(C)n2C)c2c1CCC(OC)(c1ccccc1C)O2` (stereo unspecified), the melting point fell in the range of 257 to 261 °C.

For `CC(C)(CCCCCCCC(=O)CCCCCCCC(C)(C)C(=O)O)C(=O)O`, the melting point was in the range of 74 to 77 °C.

Take `CC(C)NC(=O)Nc1ccc2c(c1Cl)C(c1ccccc1F)=NCC(=O)N2C`: the melting point fell in the range of 130 to 140 °C.

In the case of `O=C1CCC(c2ccccc2)(c2ccccc2)C2CN(C(Cc3ccccc3)=NCc3ccccc3F)CC12` (stereo unspecified), the melting point came to 160 °C.

For the molecule `O=C(O)C1Cc2c(c(Cl)cc3c(-c4cccc(Cl)c4)noc23)O1` (stereo unspecified), the melting point was in the range of 168 to 169 °C.

Consider `Cn1nc(-c2cccc(C(F)(F)F)c2)c(Br)c1C(=O)O`, for which the melting point was 182 to 184 °C.

As to `O=C(O)c1cccc(C(=O)c2ccc(C3CCCCC3)cc2)c1`, the melting point was in the range of 180 to 185 °C.

As to `Cc1cc(C)c(C[C@@H](C(=O)[C@H](Cc2c(C)cc(C)cc2C)N2C(=O)c3ccccc3C2=O)N2C(=O)c3ccccc3C2=O)c(C)c1`, the melting point fell in the range of 142 to 143 °C.

In the case of `CN(CCO)Cn1nc(-c2ccncc2)n(-c2ccccc2)c1=S`, the melting point fell in the range of 173 to 174 °C.

Take `Cc1ccc(C2C=C3C(=CCC4=C3NN(C)CC4)S2=O)cc1` (stereo unspecified): the melting point was in the range of 160 to 162 °C.

`Cc1ccccc1CCc1nc2cc(Cl)c(S(N)(=O)=O)cc2[nH]1` registered a melting point of 205 to 208 °C.

In the case of `O=C(NCCCBr)c1cnccc1C(F)(F)F`, the melting point lay in the range of 61 to 63 °C.

In the case of `O=S(=O)(c1ccc(S)cc1)c1ccc(S)cc1`, the melting point fell in the range of 138 to 140 °C.

`Cc1nc2cc(-c3ccccc3C#N)ccc2[nH]1` displayed a melting point of 205 to 208 °C.

On to `Cc1cc(C(C)(C)C)c(O[Si](C)(C)Cl)c(C(C)(C)C)c1`, for which the melting point was 119 to 121 °C.

As to `Cc1nc(-c2[nH]c3ccccc3c2C=O)no1`, the melting point lay within 228 to 230 °C.

Take `Cn1cc(-c2cc3cccnc3[nH]2)c2cc(C(N)=O)ccc21`: the melting point fell in the range of 330 to 332 °C.

Take `CCOC(=O)C1=C(C)NC(CO)=C(C(=O)OCC)C1c1ccccc1/C=C/C(=O)OC(C)(C)C` (stereo unspecified): the melting point fell in the range of 163 to 164 °C.

With `N#CC(C#N)=C1N(CCCN2CCCCC2)CCN1CCN1CCCCCC1`, the melting point is 80 to 86 °C.

With `O=C(N1CCNc2ccccc2C1)n1ccnc1`, the melting point fell in the range of 98 to 101 °C.

In turn, `CCC(=O)Nc1c(-c2c(F)cc(F)cc2F)c(Cl)nc2ncnn12` yielded a melting point of 162 to 165 °C.

Molecule `COc1ccc(S(=O)(=O)Nc2ccccc2Cl)cc1OC1CCCC1` had a melting point of 113 to 115 °C.

Regarding `CC(=NOCC(N)=O)c1ccc(Cl)cc1`, the melting point fell in the range of 103 to 104 °C.

For `CCOc1nc(Cl)nc2c1oc1nc(-c3ccccc3)cc(C)c12`, the melting point was 131 to 132 °C.

Molecule `CC1=CC(C)(C)Cc2c1nc(C(C)C)c(C(C)O)c2-c1ccc(F)cc1` (stereo unspecified) showed a melting point of 117 to 119 °C.

Regarding `O=S(=O)(CCN1CCOCC1)OCCOc1ccn(-c2ccc(Cl)c(Cl)c2)n1`, the melting point is 120 to 122 °C.

Molecule `COCc1c(-c2ccccc2)ncc2[nH]c3ccc(OCc4ccccc4)cc3c12` displayed a melting point of 189 to 191 °C.

Molecule `Cc1cc([N+](=O)[O-])ccc1C(=O)N=CN(C)C` showed a melting point of 118 to 121 °C.

As for `CCCc1c(O)ccc2c(OCc3ccccc3)cc(=O)oc12`, the melting point lay in the range of 213 to 214 °C.

`COc1cc(-c2nc3cnc(OC[C@H](C)NC(C)=O)cc3o2)cc(F)c1OCC1CC1` gave a melting point of 163 °C.

Molecule `CCCCNC(=S)C(C)Oc1ccc2oc3cc(Cl)ccc3c2c1` (stereo unspecified) yielded a melting point of 101 to 104 °C.

The molecule `N#CCCCCn1cnc(NC(N)=NCC(F)(F)F)n1` showed a melting point of 200 to 201 °C.

For the molecule `CC(=O)Nc1nsnc1-c1c(Cl)cccc1Cl`, the melting point was in the range of 180 to 185 °C.

As for `CCON=C(C)c1cccnc1`, the melting point lay in the range of 160 to 162 °C.

In turn, `Cc1cc(C(=O)NCc2ccccc2)c(N)s1` returned a melting point of 170 °C.

`COc1cc(C=CC(=O)c2cccc(N(C)C)c2)cc(OC)c1` had a melting point of 81.8 to 82.6 °C.

In turn, `Cn1c(CN2C(=O)C3(COc4cc5c(cc43)OCCO5)c3ccccc32)nc2ccccc21` (stereo unspecified) displayed a melting point greater than 240 °C.

Molecule `N#Cc1cnc2cc(Br)sc2c1Nc1ccc(Oc2ccccc2)cc1` returned a melting point of 248 to 250 °C.

Molecule `CC1=NC(c2ccccc2)c2c(cc[nH]c2=O)N1` (stereo unspecified) had a melting point of 263 to 264 °C.

In the case of `CC(=O)Nc1ccc(C(=O)N2CC2C#N)c(OC(C)=O)c1` (stereo unspecified), the melting point was 118 to 120 °C.

Regarding `CC1(C)Oc2ccc(C(=O)CCl)cc2S1`, the melting point was 84 to 86 °C.

In the case of `O=C(c1ccc(Br)cc1)N1CC(=O)N(CCc2ccccc2)C(=O)C1`, the melting point fell in the range of 110 to 112 °C.

In the case of `Clc1ccc2c(c1)c(-c1ccccc1)nc1nccn12`, the melting point is 270 to 272 °C.

Take `COc1cc2c3c(n(CCCNS(=O)(=O)c4ccccc4)c(=O)c2cc1OC)-c1ccccc1C3=O`: the melting point lay in the range of 249 to 250 °C.

In the case of `CCOC(=O)C(=CNc1ncnc2ccc(N3CCN(C)CC3)cc12)C(=O)OCC`, the melting point was in the range of 154 to 159 °C.

`N#CC(C=N)CC(=O)c1ccc2ccccc2c1` (stereo unspecified) showed a melting point of 154 to 157 °C.

Consider `COc1cc(CCCC2SC(=O)NC2=O)cc(OC)c1OCc1ccccc1` (stereo unspecified), for which the melting point lay in the range of 101 to 102 °C.

`c1ccc2c(c1)C[C@H]1CSC(=Nc3cccc4ccncc34)N1C2` registered a melting point of 206 °C.

Molecule `Cc1cc(O)c(SCc2ccc(Cl)cc2Cl)c(=O)o1` yielded a melting point of 163 to 164 °C.

In turn, `Cc1onc(CCc2ccccc2)c1C(=O)O` yielded a melting point of 154 to 156 °C.

`O=C1Nc2ccccc2C2=NC(CBr)CN12` (stereo unspecified) had a melting point of 213 to 214 °C.

`O=C(O)c1c[nH]c2nc(NCc3ccccc3)nn2c1=O` came in with a melting point of 240 to 245 °C.

`COc1cn(C)c(=O)c(O)n1` came in with a melting point of 201 to 204 °C.

`CN(C)C(C)(O)CC12CCC(c3ccccc31)c1ccccc12` (stereo unspecified) came in with a melting point of 118 to 121 °C.

`Cc1nn(-c2cc(Oc3ccc([N+](=O)[O-])cn3)c(Cl)cc2F)c(=O)n1C(F)F` returned a melting point of 120 to 123 °C.

In turn, `Cc1ccc(-n2ccc3c(Cl)nn(C)c(=O)c32)c(C)c1` came in with a melting point of 119 to 120 °C.

Take `CC(=O)ON=C1C(=O)Nc2cc(Cl)cc(Cl)c2C1=O`: the melting point was in the range of 194 to 195 °C.

`Cn1ncc2nn(-c3cccc(C(F)(F)F)c3)c(=O)c(Cl)c21` had a melting point of 156 to 158 °C.

Molecule `O=C(O)c1cnn(-c2cccc(Cl)c2)c1Cl` came in with a melting point of 209 to 211 °C.

In turn, `COc1cccc(N(CC(=O)N(C)c2ccccc2)C(=O)CN2C(=O)c3ccccc3C2=O)c1` gave a melting point of 137 °C.

The molecule `COc1ccc(/C=C/C(=O)N2CC(CCl)c3c2cc(O)c2ncccc32)cc1` (stereo unspecified) had a melting point of 208 to 211 °C.
